Like-named read-outs stand apart in the source and are kept apart here.
Experiments:
[1] = test system: T. gondii RH strain (RH-Tub-eYFP) tachyzoites; experiment: microbe, parasite or virus in culture; format: cell-based, Toxoplasma gondii; conditions: for percent parasite growth at 2 µg/mL: Toxoplasma gondii
[2] = test system: P. falciparum 3D7 parasites; experiment: P. falciparum growth inhibition assay, 2-cycle (120 h treatment), delayed-death screen and dose-response; format: cell-based, Plasmodium falciparum; conditions: for activity at 2 µg/mL: Plasmodium falciparum
[3] = test system: P. falciparum 3D7 parasites; experiment: P. falciparum growth inhibition assay, 1-cycle (72 h treatment), SYBR DNA staining (library screen at 2 μg/mL and dose-response); format: cell-based, Plasmodium falciparum; conditions: for activity at 2 µg/mL: Plasmodium falciparum; for activity in the screen against P. falciparum: 2 μg/mL, active = ≥80 % growth inhibition
[4] = 3D7, P. falciparum, 120 h, parasite screen 2 μg/mL, % growth, replicate 1, read-out: Pf_120h_%Growth_Rep1
[5] = 3D7, P. falciparum, 120 h, parasite screen 2 μg/mL, % growth, replicate 2, read-out: Pf_120h_%Growth_Rep2
[6] = 3D7, P. falciparum, 72 h, parasite screen 2 μg/mL, % growth, replicate 1, read-out: Pf_72h_%Growth_Rep1
[7] = 3D7, P. falciparum, 72 h, parasite screen 2 μg/mL, % growth, replicate 2, read-out: Pf_72h_%Growth_Rep2
[8] = 72 h, T. gondii, 72 h, parasite screen 2 μg/mL, % growth, replicate 1, read-out: Tg_72h_%Growth_Rep1
[9] = 72 h, T. gondii, 72 h, parasite screen 2 μg/mL, % growth, replicate 2, read-out: Tg_72h_%Growth_Rep2
[10] = active against the parasite at 2 μg/mL, no anti-tumour (NS-1) or cytotoxic (fibroblast) activity at 5 μg/mL
[11] = T. gondii, 72 h, parasite screen 2 μg/mL, % growth, replicate 1
[12] = T. gondii, 72 h, parasite screen 2 μg/mL, % growth, replicate 2
[13] = P. falciparum, 120 h, parasite screen 2 μg/mL, % growth, replicate 1
[14] = P. falciparum, 120 h, parasite screen 2 μg/mL, % growth, replicate 2
[15] = P. falciparum, 72 h, parasite screen 2 μg/mL, % growth, replicate 1
[16] = P. falciparum, 72 h, parasite screen 2 μg/mL, % growth, replicate 2
[17] = T. gondii, 72 h, screen at 2 μg/mL, replicate 1
[18] = T. gondii, 72 h, screen at 2 μg/mL, replicate 2
[19] = P. falciparum, 120 h, screen at 2 μg/mL, replicate 1
[20] = P. falciparum, 120 h, screen at 2 μg/mL, replicate 2
[21] = P. falciparum, 72 h, screen at 2 μg/mL, replicate 1
[22] = P. falciparum, 72 h, screen at 2 μg/mL, replicate 2
[23] = library screen at 2 μg/mL, 72 h, % growth, replicate 1
[24] = library screen at 2 μg/mL, 72 h, % growth, replicate 2
[25] = library screen at 2 μg/mL, 120 h, % growth, replicate 1
[26] = library screen at 2 μg/mL, 120 h, % growth, replicate 2

CO[C@H]1C[C@H](O[C@@H]2/C(C)=C/C[C@@H]3C[C@@H](C[C@]4(CC[C@H](C)[C@@H](C5CCCCC5)O4)O3)OC(=O)[C@@H]3C=C(C)/C(=N/O)[C@H]4OC/C(=C\C=C\[C@@H]2C)[C@]43O)O[C@@H](C)[C@@H]1O [selamectin, reference compound]
percent parasite growth at 2 µg/mL ([1]; 72 h, read-out: Tg_72h_%Growth_Rep1): 116%
percent parasite growth at 2 µg/mL ([1]; 72 h, read-out: Tg_72h_%Growth_Rep2): 78.2%
activity at 2 µg/mL [2, 4]: 2.99%
activity at 2 µg/mL [2, 5]: 8.34%
selectivity for P. falciparum in the screens [3]: selective for P. falciparum
activity at 2 µg/mL [3, 6]: 3.56%
activity at 2 µg/mL [3, 7]: 6.13%

Nc1ncnc2c1ncn2[C@@H]1O[C@H](C[C@@H](N)CC[C@H](N)C(=O)O)[C@@H](O)[C@H]1O [sinefungin, reference compound]
percent parasite growth at 2 µg/mL [1, 8]: 7.22%
percent parasite growth at 2 µg/mL [1, 9]: 12.7%
selectivity for T. gondii in the screens [1, 10]: also active
activity at 2 µg/mL [2, 4]: 13.4%
activity at 2 µg/mL [2, 5]: -3.05%
activity at 2 µg/mL [3, 6]: 17.1%
activity at 2 µg/mL [3, 7]: 12.1%
selectivity for P. falciparum in the screens [3, 10]: also active

CCO[C@@H]1[C@@H](OC)[C@H](C)O[C@@H](O[C@@H]2C[C@H]3CC[C@@H]4[C@@H](C=C5C(=O)[C@H](C)[C@@H](O[C@H]6CC[C@H](N(C)C)[C@@H](C)O6)CCC[C@H](CC)OC(=O)C[C@H]54)[C@@H]3C2)[C@@H]1OC [spinosyn J, 3'-Ethoxy-5,6-dihydro-]
Tg_72h_%Growth_Rep1 [1, 11]: 73.90%
Tg_72h_%Growth_Rep2 [1, 12]: 86.54%
Pf_120h_%Growth_Rep1 [2, 13]: 7.21%
Pf_120h_%Growth_Rep2 [2, 14]: 9.72%
Pf_72h_%Growth_Rep1 [3, 15]: 5.68%
Pf_72h_%Growth_Rep2 [3, 16]: 5.35%

CCO[C@@H]1[C@@H](OC)[C@H](C)O[C@@H](O[C@H]2C[C@H]3[C@@H]4C=C5C(=O)[C@H](C)[C@@H](O)CCC[C@H](CC)OC(=O)C[C@H]5[C@@H]4C=C(C)[C@@H]3C2)[C@@H]1OC [spinosyn L 17-pseudoaglycone, 3'-Ethoxy-]
Tg_72h_%Growth_Rep1 [1, 11]: 97.87%
Tg_72h_%Growth_Rep2 [1, 12]: 88.47%
Pf_120h_%Growth_Rep1 [2, 13]: 6.02%
Pf_120h_%Growth_Rep2 [2, 14]: 1.27%
Pf_72h_%Growth_Rep1 [3, 15]: 17.82%
Pf_72h_%Growth_Rep2 [3, 16]: 8.15%

CCO[C@@H]1[C@@H](OC)[C@H](C)O[C@@H](O[C@H]2C[C@H]3[C@@H]4C=C5C(=O)[C@H](C)[C@@H](O[C@H]6CC[C@H](N(C)C)[C@@H](C)O6)CCC[C@H](CC)OC(=O)C[C@H]5[C@@H]4C=C(C)[C@@H]3C2)[C@@H]1OC [spinosyn L, 3'-Ethoxy-]
Tg_72h_%Growth_Rep1 [1, 11]: 142.09%
Tg_72h_%Growth_Rep2 [1, 12]: 79.71%
Pf_120h_%Growth_Rep1 [2, 13]: 13.87%
Pf_120h_%Growth_Rep2 [2, 14]: 7.84%
Pf_72h_%Growth_Rep1 [3, 15]: 10.02%
Pf_72h_%Growth_Rep2 [3, 16]: -2.72%

CN[C@@H]1C[C@H]2O[C@@](C)([C@@H]1OC)n1c3ccccc3c3c4c(c5c6ccccc6n2c5c31)C(=O)NC4 [staurosporine, reference compound]
activity in the screen against T. gondii ([1]; 2 μg/mL, 72 h, active = ≥80 % growth inhibition): active in our screens
percent parasite growth at 2 µg/mL [1, 8]: 1.08%
percent parasite growth at 2 µg/mL [1, 9]: -0.18%
activity at 2 µg/mL ([2]; 3D7, 120 h, P. falciparum, 120 h, parasite screen 2 μg/mL, % growth, replicate 1, read-out: Pf_120h_%Growth_Rep1): 10.8%
activity at 2 µg/mL ([2]; 3D7, 120 h, P. falciparum, 120 h, parasite screen 2 μg/mL, % growth, replicate 2, read-out: Pf_120h_%Growth_Rep2): 1.05%
activity in the screen against P. falciparum ([3]; 72 h): active in our screens
activity at 2 µg/mL ([3]; 3D7, 72 h, P. falciparum, 72 h, parasite screen 2 μg/mL, % growth, replicate 1, read-out: Pf_72h_%Growth_Rep1): 9.8%
activity at 2 µg/mL ([3]; 3D7, 72 h, P. falciparum, 72 h, parasite screen 2 μg/mL, % growth, replicate 2, read-out: Pf_72h_%Growth_Rep2): -0.94%

CC(/C=C/C(=O)NO)=C\[C@@H](C)C(=O)c1ccc(N(C)C)cc1 [trichostatin A, reference compound]
Tg_72h_%Growth_Rep1 [1, 17]: 0.84%
Tg_72h_%Growth_Rep2 [1, 18]: 0.67%
Pf_120h_%Growth_Rep1 [2, 19]: 8.88%
Pf_120h_%Growth_Rep2 [2, 20]: 11.39%
activity in the screen against P. falciparum ([3]; 72 h): active
Pf_72h_%Growth_Rep1 [3, 21]: 1.39%
Pf_72h_%Growth_Rep2 [3, 22]: -9.74%

Aflatoxin B1
Tg_72h_%Growth_Rep1 [1]: 27.47%
Tg_72h_%Growth_Rep2 [1]: 33.32%
Pf_120h_%Growth_Rep1 [2]: 89.63%
Pf_120h_%Growth_Rep2 [2]: 84.39%
Pf_72h_%Growth_Rep1 [3]: 79.06%
Pf_72h_%Growth_Rep2 [3]: 85.00%

Aflatoxin G2
Tg_72h_%Growth_Rep1 [1]: 134.03%
Tg_72h_%Growth_Rep2 [1]: 98.49%
Pf_120h_%Growth_Rep1 [2]: 98.15%
Pf_120h_%Growth_Rep2 [2]: 97.03%
Pf_72h_%Growth_Rep1 [3]: 83.21%
Pf_72h_%Growth_Rep2 [3]: 86.33%

Albofungin
Tg_72h_%Growth_Rep1 [1, 23]: -0.16%
Tg_72h_%Growth_Rep2 [1, 24]: 2.30%
Pf_120h_%Growth_Rep1 [2, 25]: -0.91%
Pf_120h_%Growth_Rep2 [2, 26]: 21.65%
Pf_72h_%Growth_Rep1 [3, 23]: 6.93%
Pf_72h_%Growth_Rep2 [3, 24]: 9.97%

Amphomycin
Tg_72h_%Growth_Rep1 [1, 23]: 94.79%
Tg_72h_%Growth_Rep2 [1, 24]: 89.38%
Pf_120h_%Growth_Rep1 [2, 25]: 117.00%
Pf_120h_%Growth_Rep2 [2, 26]: 80.15%
Pf_72h_%Growth_Rep1 [3, 23]: 83.34%
Pf_72h_%Growth_Rep2 [3, 24]: 87.67%

Bafilomycin D
Tg_72h_%Growth_Rep1 [1, 23]: 0.37%
Tg_72h_%Growth_Rep2 [1, 24]: -0.37%
Pf_120h_%Growth_Rep1 [2, 25]: 2.60%
Pf_120h_%Growth_Rep2 [2, 26]: -8.55%
Pf_72h_%Growth_Rep1 [3, 23]: 3.99%
Pf_72h_%Growth_Rep2 [3, 24]: 4.20%

Capreomycin sulfate
Tg_72h_%Growth_Rep1 [1, 17]: 114.86%
Tg_72h_%Growth_Rep2 [1, 18]: 91.40%
Pf_120h_%Growth_Rep1 [2, 19]: 94.57%
Pf_120h_%Growth_Rep2 [2, 20]: 87.91%
Pf_72h_%Growth_Rep1 [3, 21]: 82.18%
Pf_72h_%Growth_Rep2 [3, 22]: 86.69%

Chaetomin
Tg_72h_%Growth_Rep1 [1, 17]: 114.47%
Tg_72h_%Growth_Rep2 [1, 18]: 90.87%
Pf_120h_%Growth_Rep1 [2, 19]: 45.75%
Pf_120h_%Growth_Rep2 [2, 20]: 45.66%
Pf_72h_%Growth_Rep1 [3, 21]: 58.72%
Pf_72h_%Growth_Rep2 [3, 22]: 55.68%

Cinnamycin
Tg_72h_%Growth_Rep1 [1, 17]: 85.83%
Tg_72h_%Growth_Rep2 [1, 18]: 93.54%
Pf_120h_%Growth_Rep1 [2, 19]: 137.57%
Pf_120h_%Growth_Rep2 [2, 20]: 92.38%
Pf_72h_%Growth_Rep1 [3, 21]: 85.92%
Pf_72h_%Growth_Rep2 [3, 22]: 85.03%

Diacetoxyscirpenol
Tg_72h_%Growth_Rep1 [1]: -1.25%
Tg_72h_%Growth_Rep2 [1]: -0.43%
Pf_120h_%Growth_Rep1 [2]: 13.51%
Pf_120h_%Growth_Rep2 [2]: -0.91%
Pf_72h_%Growth_Rep1 [3]: 9.42%
Pf_72h_%Growth_Rep2 [3]: -2.86%

Dihydrocyclosporin A
Tg_72h_%Growth_Rep1 [1, 23]: 8.15%
Tg_72h_%Growth_Rep2 [1, 24]: 8.03%
Pf_120h_%Growth_Rep1 [2, 25]: 3.25%
Pf_120h_%Growth_Rep2 [2, 26]: 2.98%
Pf_72h_%Growth_Rep1 [3, 23]: 1.22%
Pf_72h_%Growth_Rep2 [3, 24]: -3.30%

Elaiophylin
Tg_72h_%Growth_Rep1 [1, 23]: -0.18%
Tg_72h_%Growth_Rep2 [1, 24]: 0.99%
Pf_120h_%Growth_Rep1 [2, 25]: 18.08%
Pf_120h_%Growth_Rep2 [2, 26]: 22.72%
Pf_72h_%Growth_Rep1 [3, 23]: 6.63%
Pf_72h_%Growth_Rep2 [3, 24]: 7.41%

Enniatin A
Tg_72h_%Growth_Rep1 [1, 23]: 2.24%
Tg_72h_%Growth_Rep2 [1, 24]: 14.07%
Pf_120h_%Growth_Rep1 [2, 25]: 12.21%
Pf_120h_%Growth_Rep2 [2, 26]: 16.45%
Pf_72h_%Growth_Rep1 [3, 23]: 2.40%
Pf_72h_%Growth_Rep2 [3, 24]: -1.22%

Source: article PMC12396409, “Screening and hit evaluation of a microbial metabolite library against the pathogenic Plasmodium falciparum and Toxoplasma gondii parasites” (International Journal for Parasitology: Drugs and Drug …, 2025)
